These compounds were tested against Tyrosine-protein phosphatase non-receptor type 5 (Homo sapiens) (UniProt P54829) (assay: PTPN5 (STEP) phosphatase inhibitors, biochemical, human, DiFMUP fluorescence (AID 400)). Settings: recombinant PTPN5, DiFMUP fluorescence phosphatase assay; at 50 µM; enzyme 6.5 ng/mL; DTT 5 mM; active compounds read high.
Chain of Tyrosine-protein phosphatase non-receptor type 5 (Homo sapiens) (P54829 whole entry, looked up): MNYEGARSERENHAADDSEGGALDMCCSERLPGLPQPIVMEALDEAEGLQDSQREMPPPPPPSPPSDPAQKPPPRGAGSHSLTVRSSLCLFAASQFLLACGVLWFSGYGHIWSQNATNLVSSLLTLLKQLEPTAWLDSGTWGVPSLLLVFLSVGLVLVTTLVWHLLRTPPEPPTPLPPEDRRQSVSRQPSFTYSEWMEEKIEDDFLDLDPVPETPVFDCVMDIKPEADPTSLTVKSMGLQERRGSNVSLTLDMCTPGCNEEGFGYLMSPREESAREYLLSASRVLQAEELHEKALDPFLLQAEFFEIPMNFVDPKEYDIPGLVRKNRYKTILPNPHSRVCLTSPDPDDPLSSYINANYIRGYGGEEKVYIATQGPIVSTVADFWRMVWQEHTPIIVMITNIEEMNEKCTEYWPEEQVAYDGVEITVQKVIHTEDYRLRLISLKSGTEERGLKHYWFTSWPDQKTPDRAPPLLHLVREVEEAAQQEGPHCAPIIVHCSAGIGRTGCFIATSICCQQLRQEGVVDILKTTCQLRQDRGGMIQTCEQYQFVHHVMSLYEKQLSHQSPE

Compound | inhibition [%]
O=C(O)C1Nc2c(O)cccc2C2C=CCC12 (stereo not given) | 17
NC1=NC(=O)/C(=C/C=C/c2ccc([N+](=O)[O-])o2)S1 | 75.5
O=C1NC(=S)S/C1=C\C=C\c1ccc([N+](=O)[O-])o1 | 88
CC(=O)c1ccc2c(c1)C1C=CCC1C(C(=O)O)N2 (stereo not given) | 46
CC1(C)OC(=O)C(=Cc2ccc(Br)o2)C(=O)O1 | 7
Oc1c(Cl)c(Cl)c(O)c2nsnc12 | 33
COc1cc[n+](C(=O)N(C)C)cc1 | 14

Same assay, conditions: recombinant PTPN5, DiFMUP fluorescence phosphatase assay; at 50 µM; enzyme 20 ng/mL; DTT 1 mM; active compounds read high

Compound | inhibition [%]
Cn1nc(-c2ccccc2)nc2c(=O)n(C)c(=O)nc1-2 | 95

Same assay, conditions: recombinant PTPN5, DiFMUP fluorescence phosphatase assay; at 50 µM; enzyme 87 ng/mL; DTT 5 mM; active compounds read high

Compound | inhibition [%]
O=C(O)c1ccc([O-])cn1.OO.OO.[K+].[K+].[O]=[V] | 90
O=C(O)c1ccc(O)cn1.OO.[O]=[V] | 63
COc1ccccc1C(=O)Nc1ccc(O)cc1C(=O)O | 33
Cc1ccc2nc(-c3cc(N=Cc4cc(C(=O)O)ccc4O)ccc3O)[nH]c2c1 | 53
O=C(O)c1ccc(O)c(C=Nc2ccc3oc(-c4ccc(F)cc4Cl)nc3c2)c1 | 70
COc1ccc(-c2nc3cc(N=Cc4cc(C(=O)O)ccc4O)ccc3o2)cc1 | 83
CC(C)(C)NC(=O)CCN(/N=C/c1cc(C(=O)O)ccc1O)C1=NS(=O)(=O)c2ccccc21 | 30
O=C(O)c1ccc(O)c(/C=N/N(CCO)C2=NS(=O)(=O)c3ccccc32)c1 | 43
F | 91
CC(C)C(=O)Nc1ccc(O)cc1C(=O)O | 29
O=C(O)c1ccc(O)c(C=Nc2cccc(-c3nc4ccccc4o3)c2)c1 | 38
OO.OO.[K+].[O]=[V].c1cnc2c(c1)ccc1cccnc12 | 72
OO.OO.[K+].[O]=[V].c1ccc(-c2ccccn2)nc1 | 67
O=C(O)c1ccc(O)c(C=Nc2ccc3oc(-c4cccc(Cl)c4Cl)nc3c2)c1 | 33
O=C([O-])c1ccccn1.OO.OO.[K+].[K+].[O]=[V] | 90

Same assay, conditions: recombinant PTPN5, DiFMUP fluorescence phosphatase assay; dose 33 (unit in doubt); enzyme 28.9 ng/mL; DTT 1 mM; active compounds read high

Compound | inhibition [%]
[NH-]CO.[NH-]CO.[NH-]CO.[NH-]CO.[O]=[V][O][V]=[O] | 43

Same assay, conditions: recombinant PTPN5, DiFMUP fluorescence phosphatase assay; dose 200 (unit in doubt); enzyme 20 ng/mL; DTT 1 mM; active compounds read high

Compound | inhibition [%]
CCCCOC(OCCCC)(OCCCC)OCCCC | 99.4
CCn1nc(/C=C/c2ccccc2)[n+](=O)c2c(=O)n(C)c(=O)[nH]c21 | 54
CCn1nc(-c2ccc(Cl)cc2)nc2c(=O)n(C)c(=O)nc1-2 | 67.5
Cn1nc(/C=C/c2ccccc2)nc2c(=O)n(C)c(=O)nc1-2 | 70
Cn1c(=O)[nH]c2c(c1=O)[n+](=O)c(/C=C/c1ccccc1)nn2C | 52
O=P(O)(O)OP(=O)(O)O | 31.6
